In patent US20260240879A1, “TOPICAL PALA THERAPY FOR CANCER” (priority 2023, published 2026):
Entries after “also recorded” stand apart in the source; their conditions may differ.

What was measured:
[1] = system: cytokines and chemokines in treated skin; experiment: Cytokine/chemokine profile of treated skin lysates (U-PLEX); settings: for expression of inflammatory cytokine/chemokine panel in treated skin (in words): daily topical 2% PALA, 5% IMQ or 5% 5-FU, 7 days, vs vehicle; for IL-17C, Mean (SEM) / IL-17A, Mean (SEM) / GM-CSF, Mean (SEM) / IL-6, Mean (SEM) / KC, Mean (SEM) / RANTES, Mean (SEM): treated skin lysate, day 7, 2% PALA, 5% IMQ, 5% 5-FU, n = 5/group; for IL-17C, Mean (SEM): vehicle 0.5 (0.03); for IL-17A, Mean (SEM): vehicle 0.6 (0.1); for GM-CSF, Mean (SEM): vehicle 0.8 (0.1); for IL-6, Mean (SEM): vehicle 25.4 (3.2); for KC, Mean (SEM): vehicle 26.3 (6.4); for RANTES, Mean (SEM): vehicle 43.7 (3.2)
Experimental: The topical formulations of 2% PALA/50% acetone/10% glycerol, 5% imiquimod (IMQ), 5% 5-FU (5-FU), vehicle (50% acetone/10% glycerol) control, and Aquaphor were applied (~0.05 g/mouse) daily to the dorsal skin of SKH1-Elite female mice (8 weeks of age; n=5/group) for 7 days. […] Mice were monitored daily for weight change, skin appearance, and signs of distress.
Skin protein lysates were made by homogenizing frozen tissue with a pestle and scissors in RIPA buffer (50 mM Tris, pH8, 150 mM NaCl, 0.5% sodium deoxycholate, 1% NP-40, 0.1% sodium dodecyl sulfate, lx Pierce protease inhibitor cocktail (A32965, ThermoFisher)). Cytokines and chemokines were quantified from 25 μg of lysate using a custom 10-plex U-PLEX panel (K15069L-2; Meso Scale Discovery) that included: GM-CSF, KC/CXCL1, IFNα, IFNβ, IFNγ, IL-10, IL-6, IL-12p70, IL-17A, IL-17C, IL-17F, IP-10/CXCL10, MCP-1/CCL2, RANTES/CCL5, and TNFα. The MESO SECTOR S 600 plate reader (ICOAA-0; Meso Scale Discovery) was used to collect the U-Plex data and data was analyzed using MSD Discovery Workbench 4.0 software.

[2] = Skin irritation testing, daily topical application for 7 days; settings: for skin histology on day 7 / spleen weight on day 7 / skin irritation apparent: daily topical 2% PALA, 5% IMQ or 5% 5-FU; for skin irritation apparent / weight change: naive mice; for weight change: daily topical 5% IMQ or 5% 5-FU, in contrast to vehicle and 2% PALA
Experimental: The topical formulations of 2% PALA/50% acetone/10% glycerol, 5% imiquimod (IMQ), 5% 5-FU (5-FU), vehicle (50% acetone/10% glycerol) control, and Aquaphor were applied (~0.05 g/mouse) daily to the dorsal skin of SKH1-Elite female mice (8 weeks of age; n=5/group) for 7 days. […] Mice were monitored daily for weight change, skin appearance, and signs of distress. […] At harvest, spleen weights and colon lengths were measured.

[3] = Toxicity markers in UVB-tumor-bearing mice under topical treatment (weight, SAA, colon length, fecal LCN2); settings: 5% (w/w) 5-fluorouracil, daily topical
Experimental: Serum amyloid A levels were measured in plasma samples using the Mouse SAA ELISA kit (E-90SAA, Immunology Consultants Laboratory, Inc.) according to manufacturer's instructions. Lipocalin-2 (LCN2) was quantified from pre-weighed stool samples homogenized in 0.5 mL PBS using the Mouse Lipocalin-2/NGAL DuoSet ELISA (DY1857) and DuoSet Ancillary Reagent Kit 2 (DY008, R&D Systems).

[4] = system: UVB-induced NMSC (AK lesions and SCC tumors); experiment: UVB-induced NMSC mouse model: tumor number, area, growth phenotype and grade; settings: 2% PALA or 5% IMQ, daily, 4 weeks

Row | Structure (SMILES) | expression of inflammatory cytokine/chemokine panel in treated skin (in words) [1] | IL-17C, Mean (SEM) [1] | IL-17A, Mean (SEM) [1] | GM-CSF, Mean (SEM) [1] | IL-6, Mean (SEM) [1] | KC, Mean (SEM) [1] | RANTES, Mean (SEM) [1] | skin histology on day 7 [2] | spleen weight on day 7 [2] | skin irritation apparent [2] [days] | weight change [2] | early termination of animals at the request of veterinary staff [3] | tumor levels of interleukin-1β [4]
1 | O=c1[nH]cc(F)c(=O)[nH]1 [Formulation 5-FU, fluorouracil] | increased expression of IL-6, IL-17C, KC, and GM-CSF | 1.4 (0.1) | 1.2 (0.4) | 2.6 (0.2) | 268.8 (104.8) | 114.5 (16.4) | 17.7 (5.0) | epithelial erosion | significant decreases in spleen weight | 5 | significant weight loss | terminated after 2.5 weeks of treatment | –
2 | CC(C)Cn1cnc2c(N)nc3ccccc3c21 [IMQ, imiquimod] | upregulation of IL-17 family cytokines; also recorded: cutaneous levels of RANTES and GM-CSF were elevated | 1.0 (0.04) | 1.6 (0.1) | 2.5 (0.7) | 61.3 (10.0) | 28.6 (5.9) | 141.0 (36.1) | overt thickening of the epidermis | splenomegaly | 2 | significant weight loss | – | elevated
